From ChEMBL document CHEMBL5576097, “Synthesis and biological evaluation of novel penindolone derivatives as potential antiproliferative agents against SCLC in vitro” (Bioorg Med Chem Lett, 2024)
Activity calls are given as the source filed them. The calls are words filed in the database; no cut-off is given here.

Columns and labels:
H69AR [1] = test: Antiproliferative activity against human NCI-H69AR cells by SRB assay; format: functional, cell-based
A549 = test: Antiproliferative activity against human A549 cells by SRB assay; format: functional, cell-based
NCI-H358 = test: Antiproliferative activity against human NCI-H358 cells by SRB assay; format: functional, cell-based
H69AR [2] = test: Inhibition of colony formation in human NCI-H69AR cells; format: functional, cell-based; details: dose 0-8 µM
H69AR [3] = test: Inhibition of colony formation in human NCI-H69AR cells at 8 uM relative to control; format: functional
H69AR [4] = test: Induction of cell cycle arrest in human NCI-H69AR cells assessed as reduction in number of cells in S phase measured after 24 hrs by flow cytometry analysis; format: functional, cell-based; details: dose 0-8 µM
H69AR [5] = test: Induction of cell cycle arrest in human NCI-H69AR cells assessed as increase in number of cells in G0/G1 phase at 0 to 8 uM measured after 24 hrs by flow cytometry analysis; format: functional, cell-based; details: dose 0-8 µM
H69AR [6] = test: Induction of apoptosis in human NCI-H69AR cells assessed as increase in cleaved caspase-8 protein expression by Western blot analysis; format: functional, cell-based; details: dose 0.5-8 µmol/L
H69AR [7] = test: Induction of apoptosis in human NCI-H69AR cells assessed as increase in cleaved PARP protein expression by Western blot analysis; format: functional, cell-based; details: dose 0.5-8 µmol/L
H69AR [8] = test: Induction of apoptosis in human NCI-H69AR cells assessed as increase in BAX protein expression by Western blot analysis; format: functional, cell-based; details: dose 0.5-8 µmol/L
H69AR [9] = test: Induction of apoptosis in human NCI-H69AR cells assessed as reduction in Bcl-2 protein expression by Western blot analysis; format: functional, cell-based; details: dose 0.5-8 µmol/L
H69AR [10] = test: Induction of apoptosis in human NCI-H69AR cells assessed as reduction in XIAP protein expression by Western blot analysis; format: functional, cell-based; details: dose 0.5-8 µmol/L
H69AR [11] = test: Induction of apoptosis in human NCI-H69AR cells assessed as live cells at 2 micromol/L measured after 48 hrs by Annexin V-FITC/PI staining based flow cytometry analysis (reference value: 97.7%); format: functional; details: dose 2 µmol/L, at 2 µM
H69AR [12] = test: Induction of apoptosis in human NCI-H69AR cells assessed as early apoptotic cells at 2 micromol/L measured after 48 hrs by Annexin V-FITC/PI staining based flow cytometry analysis (reference value: 1.96%); format: functional; details: dose 2 µmol/L, at 2 µM
H69AR [13] = test: Induction of apoptosis in human NCI-H69AR cells assessed as late apoptotic cells at 2 micromol/L measured after 48 hrs by Annexin V-FITC/PI staining based flow cytometry analysis (reference value: 0.38%); format: functional; details: dose 2 µmol/L, at 2 µM
H69AR [14] = test: Induction of apoptosis in human NCI-H69AR cells assessed as dead cells at 2 micromol/L measured after 48 hrs by Annexin V-FITC/PI staining based flow cytometry analysis (reference value: 0%); format: functional; details: dose 2 µmol/L, at 2 µM
H69AR [15] = test: Induction of apoptosis in human NCI-H69AR cells assessed as live cells at 4 micromol/L measured after 48 hrs by Annexin V-FITC/PI staining based flow cytometry analysis (reference value: 97.7%); format: functional; details: dose 4 µmol/L, at 4 µM
H69AR [16] = test: Induction of apoptosis in human NCI-H69AR cells assessed as early apoptotic cells at 4 micromol/L measured after 48 hrs by Annexin V-FITC/PI staining based flow cytometry analysis (reference value: 1.96%); format: functional; details: dose 4 µmol/L, at 4 µM
H69AR [17] = test: Induction of apoptosis in human NCI-H69AR cells assessed as late apoptotic cells at 4 micromol/L measured after 48 hrs by Annexin V-FITC/PI staining based flow cytometry analysis (reference value: 0.38%); format: functional; details: dose 4 µmol/L, at 4 µM
H69AR [18] = test: Induction of apoptosis in human NCI-H69AR cells assessed as dead cells at 4 micromol/L measured after 48 hrs by Annexin V-FITC/PI staining based flow cytometry analysis (reference value: 0%); format: functional; details: dose 4 µmol/L, at 4 µM
H69AR [19] = test: Induction of apoptosis in human NCI-H69AR cells assessed as live cells at 8 micromol/L measured after 48 hrs by Annexin V-FITC/PI staining based flow cytometry analysis (reference value: 97.7%); format: functional; details: dose 8 µmol/L, at 8 µM
H69AR [20] = test: Induction of apoptosis in human NCI-H69AR cells assessed as early apoptotic cells at 8 micromol/L measured after 48 hrs by Annexin V-FITC/PI staining based flow cytometry analysis (reference value: 1.96%); format: functional; details: dose 8 µmol/L, at 8 µM
H69AR [21] = test: Induction of apoptosis in human NCI-H69AR cells assessed as late apoptotic cells at 8 micromol/L measured after 48 hrs by Annexin V-FITC/PI staining based flow cytometry analysis (reference value: 0.38%); format: functional; details: dose 8 µmol/L, at 8 µM
H69AR [22] = test: Induction of apoptosis in human NCI-H69AR cells assessed as dead cells at 8 micromol/L measured after 48 hrs by Annexin V-FITC/PI staining based flow cytometry analysis (reference value: 0%); format: functional; details: dose 8 µmol/L, at 8 µM

CCC(=O)c1cc(C)c(O)c(Cc2[nH]c3ccccc3c2Cc2c(O)c(C)cc(C(=O)CC)c2O)c1O
IC50 (H69AR [1]): > 50 µM

Cc1cc(C(=O)c2ccc(Br)cc2)c(O)c(Cc2[nH]c3ccccc3c2Cc2c(O)c(C)cc(C(=O)c3ccc(Br)cc3)c2O)c1O
IC50 (H69AR [1]): 1.58 µM
IC50 (A549): 21.2 µM
IC50 (NCI-H358): 35.8 µM
inhibition (H69AR [2]): Dose-Dependent Effect
inhibition at 8 µM (H69AR [3]): 100%
Activity (H69AR [4]): Dose-Dependent Effect
Activity (H69AR [5]): Active
Activity (H69AR [6]): Dose-Dependent Effect
Activity (H69AR [7]): Dose-Dependent Effect
Activity (H69AR [8]): Dose-Dependent Effect
Activity (H69AR [9]): Dose-Dependent Effect
Activity (H69AR [10]): Dose-Dependent Effect
Activity (H69AR [11]): 92.9%
Activity (H69AR [12]): 4.85%
Activity (H69AR [13]): 2.24%
Activity (H69AR [14]): 0.01%
Activity (H69AR [15]): 82.9%
Activity (H69AR [16]): 11.3%
Activity (H69AR [17]): 5.7%
Activity (H69AR [18]): 0.057%
Activity (H69AR [19]): 62.8%
Activity (H69AR [20]): 28.5%
Activity (H69AR [21]): 8.22%
Activity (H69AR [22]): 0.46%

CCc1cc(C(C)=O)c(O)c(Cc2[nH]c3ccccc3c2Cc2c(O)c(CC)cc(C(C)=O)c2O)c1O
IC50 (H69AR [1]): > 50 µM

Cc1cc(C(=O)c2ccc3ccccc3c2)c(O)c(Cc2[nH]c3ccccc3c2Cc2c(O)c(C)cc(C(=O)c3ccc4ccccc4c3)c2O)c1O
IC50 (H69AR [1]): 41.5 µM

Cc1cc(C(=O)c2ccc(C(F)(F)F)cc2)c(O)c(Cc2[nH]c3ccccc3c2Cc2c(O)c(C)cc(C(=O)c3ccc(C(F)(F)F)cc3)c2O)c1O
IC50 (H69AR [1]): 4.02 µM

Cc1cc(C(=O)CC(C)C)c(O)c(Cc2[nH]c3ccccc3c2Cc2c(O)c(C)cc(C(=O)CC(C)C)c2O)c1O
IC50 (H69AR [1]): > 50 µM

Cc1ccc(C(=O)c2cc(C)c(O)c(Cc3[nH]c4ccccc4c3Cc3c(O)c(C)cc(C(=O)c4ccc(C)cc4)c3O)c2O)cc1
IC50 (H69AR [1]): 3.41 µM

Cc1cc(C(=O)c2ccccc2Br)c(O)c(Cc2[nH]c3ccccc3c2Cc2c(O)c(C)cc(C(=O)c3ccccc3Br)c2O)c1O
IC50 (H69AR [1]): 7 µM

Cc1cc(C(=O)c2ccc(Cl)cc2)c(O)c(Cc2[nH]c3ccccc3c2Cc2c(O)c(C)cc(C(=O)c3ccc(Cl)cc3)c2O)c1O
IC50 (H69AR [1]): 1.64 µM

Cc1cc(C(=O)c2ccccc2F)c(O)c(Cc2[nH]c3ccccc3c2Cc2c(O)c(C)cc(C(=O)c3ccccc3F)c2O)c1O
IC50 (H69AR [1]): 5.34 µM

CC(=O)c1cc(C)c(O)c(Cc2[nH]c3ccccc3c2Cc2c(O)c(C)cc(C(C)=O)c2O)c1O
IC50 (H69AR [1]): 42.5 µM

COc1cccc(C(=O)c2cc(C)c(O)c(Cc3[nH]c4ccccc4c3Cc3c(O)c(C)cc(C(=O)c4cccc(OC)c4)c3O)c2O)c1
IC50 (H69AR [1]): 4.25 µM

Cc1cc(C(=O)c2cccc(Cl)c2)c(O)c(Cc2[nH]c3ccccc3c2Cc2c(O)c(C)cc(C(=O)c3cccc(Cl)c3)c2O)c1O
IC50 (H69AR [1]): 2.81 µM

Cc1cccc(C(=O)c2cc(C)c(O)c(Cc3[nH]c4ccccc4c3Cc3c(O)c(C)cc(C(=O)c4cccc(C)c4)c3O)c2O)c1
IC50 (H69AR [1]): 4.78 µM

Cc1cc(C(=O)c2cccc(F)c2)c(O)c(Cc2[nH]c3ccccc3c2Cc2c(O)c(C)cc(C(=O)c3cccc(F)c3)c2O)c1O
IC50 (H69AR [1]): 1.94 µM

Cc1cc(C(=O)c2ccc(CCl)cc2)c(O)c(Cc2[nH]c3ccccc3c2Cc2c(O)c(C)cc(C(=O)c3ccc(CCl)cc3)c2O)c1O
IC50 (H69AR [1]): 13.2 µM

Cc1cc(C(=O)c2ccccc2)c(O)c(Cc2[nH]c3ccccc3c2Cc2c(O)c(C)cc(C(=O)c3ccccc3)c2O)c1O
IC50 (H69AR [1]): 7.58 µM

Cc1ccccc1C(=O)c1cc(C)c(O)c(Cc2[nH]c3ccccc3c2Cc2c(O)c(C)cc(C(=O)c3ccccc3C)c2O)c1O
IC50 (H69AR [1]): 3.17 µM

COc1ccc(C(=O)c2cc(C)c(O)c(Cc3[nH]c4ccccc4c3Cc3c(O)c(C)cc(C(=O)c4ccc(OC)cc4)c3O)c2O)cc1
IC50 (H69AR [1]): 3.36 µM

Cc1cc(C(=O)c2ccccc2Cl)c(O)c(Cc2[nH]c3ccccc3c2Cc2c(O)c(C)cc(C(=O)c3ccccc3Cl)c2O)c1O
IC50 (H69AR [1]): 5.97 µM

Cc1cc(C(=O)c2cccc(Br)c2)c(O)c(Cc2[nH]c3ccccc3c2Cc2c(O)c(C)cc(C(=O)c3cccc(Br)c3)c2O)c1O
IC50 (H69AR [1]): 1.86 µM

Cc1cc(C(=O)c2ccc(Cl)cc2Cl)c(O)c(Cc2[nH]c3ccccc3c2Cc2c(O)c(C)cc(C(=O)c3ccc(Cl)cc3Cl)c2O)c1O
IC50 (H69AR [1]): 4 µM

Cc1cc(C(=O)c2ccc(F)cc2)c(O)c(Cc2[nH]c3ccccc3c2Cc2c(O)c(C)cc(C(=O)c3ccc(F)cc3)c2O)c1O
IC50 (H69AR [1]): 2.21 µM
